From patent US20240173432A1, “Compositions and Methods for Treatment of Myotonic Dystrophy Type 1 with CRISPR/SluCas9” (Vertex Pharmaceuticals Incorporated, priority 2021, published 2024)

What was measured:
[1] = system: CAG foci in primary DM1 patient myoblasts; assay: Single-cut screening: CAG foci staining; type: cell-based, human; conditions: single sgRNA; for % of CAG foci positive nuclei (DNA-PKi): DNA-PKi treated
In short: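 Primary DM1 patient myoblasts were PFA-fixed and hybridized with […] (1 ng/μL, 15 min at 80° C) in 30% formamide/2×SSC, followed by anti-MBNL1 immunostaining and Hoechst counterstain. CAG RNA foci were quantified by high-content confocal imaging after single-cut SuCas9 sgRNA editing.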

[2] = system: CUG foci in primary DM1 patient myoblasts; assay: Dual-cut screening: FISH staining of CUG RNA foci; type: cell-based, human; conditions: sgRNAs working with partner(s) or alone
In short: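 SluCas9 RNPs (protein:sgRNA 1:3; 20 pmol SluCas9 + 60 pmol sgRNA per guide, paired 1:1) nucleofected into primary DM1 patient myoblasts, then DMSO or 3 μM DNA-PKi Compound 6 for 48 h. At 72 h post-nucleofection cells fixed, FISH-stained with Cy3-PNA(CAG)5 probe plus anti-MBNL1 and Hoechst; % CUG foci-free nuclei by high-content confocal imaging.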

Substance	% of CAG foci positive nuclei (DNA-PKi) [1] [%]	% of CAG foci positive nuclei (Vehicle) [1] [%]	RNA foci reduction efficiency [2]
ATGGGCAAACTGCAGGCCTGGG (listed as DNA, chemistry not fully specified) [SluD14]	3.96	6.7	exceptionally high RNA foci reduction efficiency
GCCCCGTTGGAAGACTGAGTGC (listed as DNA, chemistry not fully specified) [SluU08]	1.61	2.21	exceptionally high RNA foci reduction efficiency
gggcTCGAAGGGTCCTTGTAGC (as printed in the source, key not given here) [SluU64]	2.58	1.23	exceptionally high RNA foci reduction efficiency
ggggcTCGAAGGGTCCTTGTAG (as printed in the source, key not given here) [SluU63]	5.49	3.29	exceptionally high RNA foci reduction efficiency
